From PubChem BioAssay (NCI)
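Assay format: 96-well plates, 48-hour exposure. At the TGI there is no net growth.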

tested on: SK-OV-3 ovarian; assay: growth of human tumour cells (NCI), 48 h

SMILES | TGI [µM]
Oc1cccc(-c2nc3cc(F)ccc3s2)c1 | 70
CN(C)c1ccc(C2SCC(=O)N2c2ccc(Oc3ccc(Cl)cc3)c(Cl)c2)cc1 (configuration not stated) | 60.4
CC(C(O)Cc1ccccc1)N(C)N=Nc1ccc([N+](=O)[O-])cc1 (configuration not stated) | 63.9
COc1ccc(/C=C2\N=C(SC)NC2=O)cc1 | > 100
CC(C)NC(=O)OCCN=c1c2ccccc2ccc2ccccc12 | > 100
O=c1oc2ccc([N+](=O)[O-])cc2c(Nc2ccc3c(c2)Oc2ccccc2O3)c1[N+](=O)[O-] | > 100
Cn1c2ccccc2c(=O)c2cccc(C(=O)NC(CCCN=C(N)N)C(=O)O)c21 (configuration not stated) | > 100
Cn1c2ccccc2c(=NNc2cccc(C(=O)O)c2)c2ccccc21 | 49.6
O=C1C(=Cc2ccccc2O)N=C(c2ccccc2)N1n1c(-c2ccccc2)nc2ccccc2c1=O | > 100

tested on: TK-10 renal; assay: growth of human tumour cells (NCI), 48 h

SMILES | TGI [µM]
COc1ccc(N2C(=O)CSC2c2c[nH]c3ccccc23)cc1 (configuration not stated) | > 100
CC(C)(C)C(=O)CC1=Nc2ccccc2SC1(O)CC(=O)C(C)(C)C (configuration not stated) | > 100
N#CC1=C(N)N(c2ccccc2)C(c2ccccc2)C1(C#N)C#N (configuration not stated) | 31.8
CCCCN=C(c1ccccc1)N1CCOCC1 | > 100
CCOC(=O)c1ccc(C)c(N=NN(C)C)c1 | > 100
CC(C)CC(O)P(=O)(O)O (configuration not stated) | > 100
CCC1(C)C=Cc2c(cc(O)c3c(=O)c4ccccc4n(C)c23)O1 (configuration not stated) | > 10
Cc1ccc(S(=O)(=O)NC(=O)N[C@@H](Cc2cnc[nH]2)C(=O)O)cc1 | > 100
Nc1[nH]nc2nc3ccc(C(F)(F)F)cc3nc12 | > 100
O=[N+]([O-])/C(C(Cl)=C(Cl)Cl)=C(\N1CCCCC1)n1cncn1 | 33.2
S=C(Nc1ccc2c(c1)oc1ccccc12)c1cccnc1 | > 100
O=C1c2cccnc2-c2nccc3c2c1nc1cc(Br)ccc13 | 2.33
NNC(=O)CSc1nc2ccccc2c(=O)n1N | 40.9
Cc1cc(S(=O)(=O)Nc2nc3cc(-c4ccc(Cl)cc4)sc3c(=O)n2N)c(S)cc1Cl | > 100
CCC(=O)ONC(=O)Cn1ccc([N+](=O)[O-])n1 | > 100
CC(=O)NC1c2ccccc2C(C)(C)C12CCC1(CC2)OCCO1 (configuration not stated) | > 100
CN1COCc2c1ccc1cc3ccc4c(c3nc21)COCN4S(C)(=O)=O | > 100
Oc1cccc(-c2nc3cc(F)ccc3s2)c1 | 37.4
CN(C)c1ccc(C2SCC(=O)N2c2ccc(Oc3ccc(Cl)cc3)c(Cl)c2)cc1 (configuration not stated) | > 100
CC(C(O)Cc1ccccc1)N(C)N=Nc1ccc([N+](=O)[O-])cc1 (configuration not stated) | 47.7
COc1ccc(/C=C2\N=C(SC)NC2=O)cc1 | > 100
CC(C)NC(=O)OCCN=c1c2ccccc2ccc2ccccc12 | > 100
O=c1oc2ccc([N+](=O)[O-])cc2c(Nc2ccc3c(c2)Oc2ccccc2O3)c1[N+](=O)[O-] | > 100
Cn1c2ccccc2c(=O)c2cccc(C(=O)NC(CCCN=C(N)N)C(=O)O)c21 (configuration not stated) | > 100
COc1cc(OC)c(C2c3cc4c(cc3OC(N3CCCC3)C2C)OCO4)c(OC)c1 (configuration not stated) | > 100
Cn1c2ccccc2c(=NNc2cccc(C(=O)O)c2)c2ccccc21 | 59.2
O=C1C(=Cc2ccccc2O)N=C(c2ccccc2)N1n1c(-c2ccccc2)nc2ccccc2c1=O | > 100

tested on: U251 CNS; assay: growth of human tumour cells (NCI), 48 h

SMILES | TGI [µM]
COc1ccc(N2C(=O)CSC2c2c[nH]c3ccccc23)cc1 (configuration not stated) | > 100
CC(C)(C)C(=O)CC1=Nc2ccccc2SC1(O)CC(=O)C(C)(C)C (configuration not stated) | > 100
N#CC1=C(N)N(c2ccccc2)C(c2ccccc2)C1(C#N)C#N (configuration not stated) | 32.4
CCCCN=C(c1ccccc1)N1CCOCC1 | > 100
CCOC(=O)c1ccc(C)c(N=NN(C)C)c1 | > 100
CC(C)CC(O)P(=O)(O)O (configuration not stated) | > 100
CCC1(C)C=Cc2c(cc(O)c3c(=O)c4ccccc4n(C)c23)O1 (configuration not stated) | > 10
Cc1ccc(S(=O)(=O)NC(=O)N[C@@H](Cc2cnc[nH]2)C(=O)O)cc1 | > 100
O=NN(CCCl)C(=O)NC1CCC(O)CC1 (configuration not stated) | > 100
Nc1[nH]nc2nc3ccc(C(F)(F)F)cc3nc12 | > 100
O=[N+]([O-])/C(C(Cl)=C(Cl)Cl)=C(\N1CCCCC1)n1cncn1 | 29.7
S=C(Nc1ccc2c(c1)oc1ccccc12)c1cccnc1 | 89.7
O=C1c2cccnc2-c2nccc3c2c1nc1cc(Br)ccc13 | 0.288
NNC(=O)CSc1nc2ccccc2c(=O)n1N | 89.3
Cc1cc(S(=O)(=O)Nc2nc3cc(-c4ccc(Cl)cc4)sc3c(=O)n2N)c(S)cc1Cl | > 100
CC(=O)NC1c2ccccc2C(C)(C)C12CCC1(CC2)OCCO1 (configuration not stated) | > 100
CN1COCc2c1ccc1cc3ccc4c(c3nc21)COCN4S(C)(=O)=O | > 100
Oc1cccc(-c2nc3cc(F)ccc3s2)c1 | 76.7
CN(C)c1ccc(C2SCC(=O)N2c2ccc(Oc3ccc(Cl)cc3)c(Cl)c2)cc1 (configuration not stated) | 53.9
CC(C(O)Cc1ccccc1)N(C)N=Nc1ccc([N+](=O)[O-])cc1 (configuration not stated) | 38.5
COc1ccc(/C=C2\N=C(SC)NC2=O)cc1 | > 100
